Measured values as given in publication PMC12337661, “PIEZO1 mechanical insensitivity in generalized lymphatic dysplasia with the potential for pharmacological rescue” (iScience, 2025).
In brackets after ≈: the same amount, converted by molar mass. Several values for one entry are separate records, joined by “and”; a condition that tells them apart may be missing. Equal entries are not always repeated. Each block holds one compound with its values, some of them ahead of it.

Columns and labels:
[1] = parameters: method as in PMID 36457143, PMID 38716967, PMID 39402010; conditions: cited from earlier work
I2286T mPIEZO1 = target: T1, I2286T mPIEZO1 (Mus musculus, UniProt E2JF22, I2286T); experiment: Outside-out patch recording with pressure pulses; assay type: cell-based; conditions: 5 μM; for current (example trace): 75 mmHg pulses
T1 construct: expressed in transfected cells
Method: (§1) Ionic currents were recorded through outside-out patches from cells using standard patch-clamp techniques in voltage-clamp mode. Patch pipettes were fire-polished and had resistance of 4–7 MΩ when filled with pipette solution. Ionic solution of composition (mM) NaCl 140, HEPES 10 and EGTA 5 (titrated to pH 7.4 using NaOH) was used in both the pipette and bath. Recordings were at a constant holding potential of −80 mV. 200-ms pressure steps were applied to the patch pipette with an interval of 12 s using High Speed Pressure Clamp HSPC-1 System (ALA Scientific Instruments, USA). All recordings were made with an Axopatch-200B amplifier (Axon Instruments, Inc., USA) equipped with Digidata 1550B and pClamp (v10.6) software (Molecular Devices, USA) at room temperature (21 ± 2°C). Currents were filtered at 2–5 kHz and digitally sampled at 5–20 kHz.

R2351Q mPIEZO1 = target: T2, R2351Q mPIEZO1 (Mus musculus, UniProt E2JF22, R2351Q); experiment: Outside-out patch recording with pressure pulses; assay type: cell-based
T2 construct: expressed in transfected cells
Method: as §1

G1994D mPIEZO1 = target: T3, G1994D mPIEZO1 (Mus musculus, UniProt E2JF22, G1994D); experiment: Outside-out patch recording with pressure pulses; assay type: cell-based; conditions: for Currents at given pressure / Pressure-response, individual cells (Figure 5f) / Mean (pressure-response, Figure 5f): G1994D + Yoda1; for Pressure-response, individual cells (Figure 5f): cell1-cell10; for Mean (pressure-response, Figure 5f): mean of cells 1-10;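 on Mean (pressure-response, Figure 5f): peak current normalised to each patch's maximum peak current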;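 on Pressure-response, individual cells (Figure 5f): peak current normalised to each patch's maximum peak current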
T3 construct: expressed in transfected cells
Method: as §1

[2] = Mouse microsomal stability; assay type: in vitro ADME; conditions: mouse microsomes
Method: Aqueous solubility, mouse microsomal stability and mouse plasma protein binding assays were performed by Malvern Panalytical (UK) as previously described.[29]

WT mPIEZO1 = target: T4, WT mPIEZO1 (Mus musculus, UniProt E2JF22); experiment: Long substance exposure and hypo-osmolality protocol Ca2+ assay; assay type: cell-based; conditions: 10 μM, 20-min exposure, hypotonic assay
T4 construct: expressed in transfected cells
Method: For intracellular Ca^2+ assays, cells were plated at 80–90% confluence in 96-well plates 24 h prior to recordings (6–8 × 10^4 cells per well). […] Cells were washed with SBS and incubated at room temperature for 20 min prior to recordings. Equal volumes of 2x concentrated compounds were injected to test for acute channel activation. Pre-incubation with compounds occurred during the 20 min prior to recordings. To expose cell membranes to hypo-osmolality, an equal volume of hypotonic SBS (containing only 35 mM NaCl) was injected onto the cells. Measurements were made on a fluorescence plate reader (Flexstation III, Molecular Devices) at room temperature (21 ± 2°C). Fura-2 was excited at 340 nm and 380 nm and emitted light collected at 510 nm, with measurements shown as the change in fluorescence (F) ratio (ΔF340/380).
SI Figure S5: Hypo-osm ol al it y test in the Ca2+ assay, referred to in the main paper
(a) Typical 96-well plate mean ± s.e.m. data for changes in intracellular Ca2+ evoked by hypotonic (35 mM NaCl) or normotonic (135 mM NaCl) medium for WT- or Empty vector-transfected cells in increasing concentrations of Yoda1 as indicated and colour -coded on t he right (representative of n = 3-6 independent experiments). […]

T2 sequence (E2JF22 whole entry R2351Q): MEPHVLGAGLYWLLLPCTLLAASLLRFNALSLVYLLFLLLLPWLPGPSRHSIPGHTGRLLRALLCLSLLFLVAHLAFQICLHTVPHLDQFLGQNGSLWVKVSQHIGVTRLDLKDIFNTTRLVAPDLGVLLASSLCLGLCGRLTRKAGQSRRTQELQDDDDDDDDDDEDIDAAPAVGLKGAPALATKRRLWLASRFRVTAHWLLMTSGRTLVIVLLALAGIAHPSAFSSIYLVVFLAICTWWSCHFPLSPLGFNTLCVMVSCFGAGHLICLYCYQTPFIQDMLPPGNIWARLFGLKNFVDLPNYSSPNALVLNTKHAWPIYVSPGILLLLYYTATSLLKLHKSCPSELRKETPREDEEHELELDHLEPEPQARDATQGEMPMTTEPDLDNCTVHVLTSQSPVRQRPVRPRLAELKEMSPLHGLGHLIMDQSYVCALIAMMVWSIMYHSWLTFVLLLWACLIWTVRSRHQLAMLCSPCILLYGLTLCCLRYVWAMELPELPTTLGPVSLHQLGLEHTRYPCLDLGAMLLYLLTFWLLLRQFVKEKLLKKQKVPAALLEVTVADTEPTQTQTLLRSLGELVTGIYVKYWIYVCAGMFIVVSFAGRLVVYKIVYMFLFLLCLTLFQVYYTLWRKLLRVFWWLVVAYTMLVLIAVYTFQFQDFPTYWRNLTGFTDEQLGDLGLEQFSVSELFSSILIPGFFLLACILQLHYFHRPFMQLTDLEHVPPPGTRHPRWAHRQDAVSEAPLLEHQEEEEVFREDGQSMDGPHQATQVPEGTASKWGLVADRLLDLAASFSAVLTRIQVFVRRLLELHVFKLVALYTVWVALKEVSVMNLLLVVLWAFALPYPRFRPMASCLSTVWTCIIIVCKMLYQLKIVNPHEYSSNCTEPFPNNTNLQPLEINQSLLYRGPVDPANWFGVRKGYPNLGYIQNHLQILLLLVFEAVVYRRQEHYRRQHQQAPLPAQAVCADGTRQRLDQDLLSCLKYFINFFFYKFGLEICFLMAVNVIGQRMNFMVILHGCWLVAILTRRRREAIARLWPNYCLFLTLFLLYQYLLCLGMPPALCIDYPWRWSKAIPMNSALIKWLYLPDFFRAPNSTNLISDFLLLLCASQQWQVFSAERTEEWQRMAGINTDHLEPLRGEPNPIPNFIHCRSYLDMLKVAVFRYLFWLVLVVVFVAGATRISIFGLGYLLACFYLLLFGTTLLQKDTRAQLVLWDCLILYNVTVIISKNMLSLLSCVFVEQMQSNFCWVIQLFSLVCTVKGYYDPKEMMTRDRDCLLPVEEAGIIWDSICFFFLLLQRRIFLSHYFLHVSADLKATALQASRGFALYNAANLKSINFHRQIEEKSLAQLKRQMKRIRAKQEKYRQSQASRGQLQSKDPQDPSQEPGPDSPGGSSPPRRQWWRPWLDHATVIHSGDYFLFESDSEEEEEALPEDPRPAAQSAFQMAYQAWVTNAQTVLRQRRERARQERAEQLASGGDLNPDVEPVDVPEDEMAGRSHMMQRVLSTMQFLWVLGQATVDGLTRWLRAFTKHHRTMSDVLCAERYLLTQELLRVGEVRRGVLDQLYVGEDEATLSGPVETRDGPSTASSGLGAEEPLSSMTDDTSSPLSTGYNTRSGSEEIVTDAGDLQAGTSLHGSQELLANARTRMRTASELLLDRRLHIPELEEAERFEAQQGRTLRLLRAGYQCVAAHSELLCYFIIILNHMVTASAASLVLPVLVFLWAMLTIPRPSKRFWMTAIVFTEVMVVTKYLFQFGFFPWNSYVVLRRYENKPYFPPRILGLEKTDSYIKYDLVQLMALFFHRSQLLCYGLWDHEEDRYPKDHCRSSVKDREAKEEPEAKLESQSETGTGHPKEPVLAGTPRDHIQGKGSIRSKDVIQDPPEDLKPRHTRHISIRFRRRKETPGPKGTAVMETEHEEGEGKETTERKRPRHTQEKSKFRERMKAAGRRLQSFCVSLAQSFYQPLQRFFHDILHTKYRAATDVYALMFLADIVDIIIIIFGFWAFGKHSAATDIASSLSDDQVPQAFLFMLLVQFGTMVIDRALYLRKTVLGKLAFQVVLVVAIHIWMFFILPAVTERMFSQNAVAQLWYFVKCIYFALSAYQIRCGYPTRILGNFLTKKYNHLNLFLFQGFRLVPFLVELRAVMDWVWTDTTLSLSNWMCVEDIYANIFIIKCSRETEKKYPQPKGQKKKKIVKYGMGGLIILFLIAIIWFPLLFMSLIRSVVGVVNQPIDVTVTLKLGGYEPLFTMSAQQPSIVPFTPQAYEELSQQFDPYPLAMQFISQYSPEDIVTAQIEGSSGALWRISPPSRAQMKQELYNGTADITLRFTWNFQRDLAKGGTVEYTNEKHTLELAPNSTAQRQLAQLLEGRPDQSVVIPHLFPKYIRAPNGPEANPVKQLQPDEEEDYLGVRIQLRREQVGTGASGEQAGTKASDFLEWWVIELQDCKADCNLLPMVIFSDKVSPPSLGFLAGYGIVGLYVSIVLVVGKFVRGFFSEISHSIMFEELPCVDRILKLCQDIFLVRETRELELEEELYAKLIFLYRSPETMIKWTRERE
T3 sequence (E2JF22 whole entry G1994D): as the sequence (E2JF22 whole entry R2351Q) above, with G1994D, Q2351R counted along it
T1 sequence (E2JF22 whole entry I2286T): as the sequence (E2JF22 whole entry R2351Q) above, with I2286T, Q2351R counted along it
T4 sequence (E2JF22 whole entry): as the sequence (E2JF22 whole entry R2351Q) above, with Q2351R counted along it

- mechanical activation in the presence of the compound (I2286T mPIEZO1; 75 mmHg pressure pulses): pressure-evoked current now occurred
- current (example trace) (I2286T mPIEZO1; time 30.5 ms): -0.41 pA
- current (example trace) (I2286T mPIEZO1; time 30.5002 ms): -0.2269 pA
- current (example trace) (I2286T mPIEZO1; time 30.5004 ms): -0.5932 pA
- maximum amplitude of current evoked by the pressure pulse, Mean (I2286T mPIEZO1; 75 mmHg, -80 mV, n = 7): -80.8694 pA
- currents at given condition, Mean (R2351Q mPIEZO1; R2351Q, Yoda1, mean of 7 cells, Figure 4e): -52.7493 pA
- Currents at given pressure (G1994D mPIEZO1; 0 mmHg, time 200.1 ms): -1.831 pA
- Currents at given pressure (G1994D mPIEZO1; 0 mmHg, time 200.15 ms): 0.2743 pA
- Currents at given pressure (G1994D mPIEZO1; 0 mmHg, time 200.2 ms): -1.526 pA
- Currents at given pressure (G1994D mPIEZO1; 15 mmHg, time 200.1 ms): 1.03 pA
- Currents at given pressure (G1994D mPIEZO1; 15 mmHg, time 200.15 ms): -0.5571 pA
- Currents at given pressure (G1994D mPIEZO1; 15 mmHg, time 200.2 ms): -0.1298 pA
- Currents at given pressure (G1994D mPIEZO1; 30 mmHg, time 200.1 ms): -11.9666 pA
- Currents at given pressure (G1994D mPIEZO1; 30 mmHg, time 200.15 ms): -9.769 pA
- Currents at given pressure (G1994D mPIEZO1; 30 mmHg, time 200.2 ms): -5.161 pA
- Currents at given pressure (G1994D mPIEZO1; 45 mmHg, time 200.1 ms): -2.0839 pA
- Currents at given pressure (G1994D mPIEZO1; 45 mmHg, time 200.15 ms): -0.6801 pA
- Currents at given pressure (G1994D mPIEZO1; 45 mmHg, time 200.2 ms): -0.497 pA
- Currents at given pressure (G1994D mPIEZO1; 60 mmHg, time 200.1 ms): 1.1543 pA
- Currents at given pressure (G1994D mPIEZO1; 60 mmHg, time 200.15 ms): -0.9209 pA
- Currents at given pressure (G1994D mPIEZO1; 60 mmHg, time 200.2 ms): -0.8599 pA
- Currents at given pressure (G1994D mPIEZO1; 75 mmHg, time 200.1 ms): -0.6364 pA
- Currents at given pressure (G1994D mPIEZO1; 75 mmHg, time 200.15 ms): 0.6148 pA
- Currents at given pressure (G1994D mPIEZO1; 75 mmHg, time 200.2 ms): 0.06549 pA
- Currents at given pressure (G1994D mPIEZO1; 90 mmHg, time 200.1 ms): -1.92 pA
- Currents at given pressure (G1994D mPIEZO1; 90 mmHg, time 200.15 ms): -2.409 pA
- Currents at given pressure (G1994D mPIEZO1; 90 mmHg, time 200.2 ms): -0.1504 pA
- Currents at given pressure (G1994D mPIEZO1; 105 mmHg, time 200.1 ms): -0.4419 pA
- Currents at given pressure (G1994D mPIEZO1; 105 mmHg, time 200.15 ms): -1.449 pA
- Currents at given pressure (G1994D mPIEZO1; 105 mmHg, time 200.2 ms): 0.2905 pA
- Mean (pressure-response, Figure 5f) (G1994D mPIEZO1; pressure 0 mmHg): -1.26E-17
- Mean (pressure-response, Figure 5f) (G1994D mPIEZO1; pressure 15 mmHg): 0.03249
- Mean (pressure-response, Figure 5f) (G1994D mPIEZO1; pressure 30 mmHg): 0.03984
- pressure for 50% activation (P50), Boltzmann mid-point (G1994D mPIEZO1; in 5 μM Yoda1, -80 mV): 64.0 mmHg
Structure (SMILES): Clc1cccc(Cl)c1CSc1nnc(-c2cnccn2)s1 [Yoda1]
- aqueous solubility limit [1]: ~2 µM (≈ 0.711 µg/mL)
- mechanical activation in the presence of the compound (R2351Q mPIEZO1; 5 μM, 75 mmHg pressure pulses): robust mechanical activation of the variant channels
- currents at given condition, individual cells (cell1-cell7) (R2351Q mPIEZO1; R2351Q, Yoda1, Figure 4e): -87.925 pA and -24.5178 pA and -36.1129 pA and -20.7822 pA and -20.109 pA and -65.4339 pA and -114.364 pA
- Pressure-response, individual cells (Figure 5f) (G1994D mPIEZO1; pressure 0 mmHg): 1.59E-17 and -8.38E-17 and 0 (4×) and -2.96E-17 and -2.69E-17 and -3.91E-17 and 3.74E-17
- Pressure-response, individual cells (Figure 5f) (G1994D mPIEZO1; pressure 15 mmHg): 0.08197 and 0.01125 and 0.01265 and 0.01555 and 0.01655 and 0.00717 and 0.01084 and 0.05939 and 0.00309 and 0.1064
- Pressure-response, individual cells (Figure 5f) (G1994D mPIEZO1; pressure 30 mmHg): 0.03806 and -0.00981 and 0.03807 and 0.05062 and 0.03544 and 0.00903 and 0.00593 and 0.02358 and 0.08822 and 0.1193

- half-life [2]: 7.2 min
- more effective than Yoda1 under the hypotonic condition (WT mPIEZO1): about 25%
Structure (SMILES): O=C(O)c1ccc(-c2cnc(SCc3c(Cl)cccc3Cl)s2)cc1 [Yoda2b, 4-(2-([(2,6-Dichlorophenyl)methyl]sulfanyl)-1,3-thiazol-5-yl)benzoic acid]
